Legend:
[1] = test system: EGFR+ A431 cells; experiment: Cell viability (MTS) after polyplex transfection of A431 cells; type: cell-based
Description: Spectrophotometry: Concentrations were determined using either a Thermo Nanodrop 2000 spectrometer or Perkin Elmer Lambda 365 Spectrophotometer. DLS measurements: DLS measurements were performed on a Malvern Nano ZS (Malvern Instruments, U.K.), operating at 633 nm with a 173° scattering angle, at 25 or 37° C. DLS mean diameters were obtained from the intensity particle size distribution provided by Malvern Zetasizer Software. DLS histograms were obtained from the intensity particle size distributions. Zeta-potential: The zeta-potential values of the polyplexes were obtained by laser doppler anemometry (LDA), measuring the mean electrophoretic mobility (Malvern Zetasizer Nano ZS, Malvern Instruments, U.K.). Measurements were performed in 10 mM HEPES pH 7.1, 150 mM NaCl. TEM measurements: TEM measurements were performed on a JEOL JEM-1011 operated at 100 kV electron microscope, equipped with a camera S5 MegaView G2. A drop of a solution of polyplexes (0.1 mg/mL) was settled on a PELCO® TEM carbon type-B film copper grid and allowed to dry at room temperature for 1 h. Infrared Spectroscopy: FT-IR spectra were recorded on a Bruker Vertex 70v, equipped with a RockSolid interferometer, after preparing the samples (1-2 mg) as KBr pellets. Spectra were processed using OPUS 7.8 software (Bruker). NMR Spectroscopy: 1H NMR spectra were recorded on a 11.7 T Bruker DRX-500 spectrometer. Chemical shifts are reported in ppm (o units) downfield from the HOD residual solvent peak (CD3OD). Experiments were recorded acquiring 64-512 scans, with a pre-scan delay (d1) of 12 s, and an acquisition time (aq) of 4 s at 300 K. 13C NMR spectrum was recorder on a 9.39 T Varian Innova 400 spectrometer. MestReNova 14.2 software (Mestrelab Research) was used for spectra processing. Cell culture conditions and treatments: HEK293FT, A431, A2058, Neuro2A, Hepa1-6 and MDA-MB 468 were maintained in 10% FBS-supplemented DMEM medium (PAN-Biotech GmbH, or Lonza Group, Basel, Switzerland)+Pen/Strep at 37° C. with 5% CO2. […] SO1861-EMCH was conjugated into/onto these polyplexes or co-administrated at 966 or 4000 nM to the different cell lines in vitro (as indicated). For this, cells were seeded in a 96 well plate at 5.000-10.000 c/w in 100 μL/well and incubated overnight at 37° C. Before treatment, the mAb-SO1861 and polyplexes were diluted separately in DPBS (PAN-Biotech GmbH) to 10× the required final concentration. The cells received 80 μL/well fresh media, followed by 20 μL/well polyplex solution and 20 μL/well saponin solution. In particular, before K16-polyplex treatments, K16-polyplexes were formulated in 10 mM HEPES, incubated for 30 min at room temperature and then diluted with complete cell culture medium. The complete cell culture medium was exchanged against 100 μL transfection medium. For co-administration of SO1861-EMCH, the transfection medium was supplemented with 2 μg/mL (=966 nM) SO1861-EMCH. Control transfections were performed with Lipofectamine™ 3000 Transfection Reagent (Thermo Fisher Scientific) according to the manufacturer's instruction, using either […] or 100 ng plasmid and with a media change 4-5 hrs after transfection. […] After treatment, the cells were incubated for 72 hr at 37° C. before the cell viability was determined by a MTS-assay performed according to the manufacturer's instruction (CellTiter 96® AQueous One Solution Cell Proliferation Assay, Promega). […]

[2] = test system: EGFR-A2058 cells; experiment: Cell viability (MTS) after polyplex transfection of A2058 cells; type: cell-based; settings: co-administered with PAMAM G5(PEG-N3)6.2 npSaporin polyplexes; 73 nM Cetuximab-SO1861 or 4 μM SO1861-EMCH; 72 h
Description: Spectrophotometry: Concentrations were determined using either a Thermo Nanodrop 2000 spectrometer or Perkin Elmer Lambda 365 Spectrophotometer. DLS measurements: DLS measurements were performed on a Malvern Nano ZS (Malvern Instruments, U.K.), operating at 633 nm with a 173° scattering angle, at 25 or 37° C. DLS mean diameters were obtained from the intensity particle size distribution provided by Malvern Zetasizer Software. DLS histograms were obtained from the intensity particle size distributions. […] Infrared Spectroscopy: FT-IR spectra were recorded on a Bruker Vertex 70v, equipped with a RockSolid interferometer, after preparing the samples (1-2 mg) as KBr pellets. […] NMR Spectroscopy: 1H NMR spectra were recorded on a 11.7 T Bruker DRX-500 spectrometer. […] Experiments were recorded acquiring 64-512 scans, with a pre-scan delay (d1) of 12 s, and an acquisition time (aq) of 4 s at 300 K. 13C NMR spectrum was recorder on a 9.39 T Varian Innova 400 spectrometer. […] After treatment, the cells were incubated for 72 hr at 37° C. before the cell viability was determined by a MTS-assay performed according to the manufacturer's instruction (CellTiter 96® AQueous One Solution Cell Proliferation Assay, Promega). […]

CC(=O)OC1C(C)OC(OC2C(C)OC(OC(=O)[C@]34CCC(C)(C)CC3C3=CCC5[C@@]6(C)CC[C@H](OC7OC(C(=O)O)C(O)C(OC8OCC(O)C(O)C8O)C7OC7OC(CO)C(O)C(O)C7O)[C@@](C)(/C=N/NC(=O)CCCCCN7C(=O)C=CC7=O)C6CC[C@@]5(C)[C@]3(C)C[C@H]4O)C(OC3OC(C)C(OC4OCC(O)C(OC5OC(CO)C(O)C(O)C5O)C4O)C(O)C3O)C2O)C(O)C1OC1OCC(O)C(O)C1O (stereo partly drawn) [SO1861-EMCH]
cell killing activity / saporin gene delivery, K16C npSaporin polyplexes ([1]; K16C alone up to about 5000 μM of plasmids (printed), SO1861-EMCH = free, co-administered with K16C-polyplexes): enhanced cell killing activity
cytoplasmic delivery of npSaporin / cell killing ([1]; co-administered with PAMAM G5(PEG-N3)6.2 npSaporin polyplexes, 73 nM Cetuximab-SO1861 or 4 μM SO1861-EMCH, 72 h): strongly enhanced the cytoplasmic delivery of npSaporin
cytoplasmic delivery of npSaporin / cell killing [2]: strongly enhanced the cytoplasmic delivery of npSaporin

Source: patent US20260077055A1, “COMPOSITIONS OF POLYPLEXES AND SAPONINS” (SAPREME TECHNOLOGIES B.V., priority 2022, published 2026)
